In publication PMC10758951, “mRNA display reveals a class of high-affinity bromodomain-binding motifs that are not found in the human proteome” (The Journal of Biological Chemistry, 2023):

Key:
[1] = Peptide solubility (as observed on sample preparation); type: physicochemical; settings: dissolved in water or experimental buffer; qualitative statement
Procedure: The concentrations of the peptides used in this study were determined by measuring absorbance at 205 nm ([21]) and NMR ([22]) quantification using a known concentration of 4,4-dimethyl-4-silapentane-1-sulfonic acid as a reference. Peptides were first dissolved in either water or experimental buffer, and measurements were made on the soluble peptide remaining in solution following removal insoluble peptide via centrifugation.

[2] = target: T1, BRD2–BD2 (Homo sapiens, UniProt P25440); assay: SPR binding of peptides to BET bromodomains; settings: peptide flowed
T1 construct: human BRD2 (BD1: 65–194; BD2: 347–455); His tag (N); biotinylation (Avi-type acceptor, vector pQE80L-Navi) (N); made in house; host or cells: Escherichia coli
Source text: (§1) The BDs from human BRD2 (BD1: 65–194; BD2: 347–455), BRD3 (BD1: 25–147; BD2: 307–419), and BRD4 (BD1: 42–168; BD2: 348–464) were expressed in Escherichia coli from pQE80L-Navi (Qiagen) as N-terminally His-tagged and biotinylated proteins for SPR. For other experiments, they were expressed from pGEX-6P (Cytiva) as N-terminal glutathione-S-transferase-fusion proteins. Expression and purification, via affinity chromatography and size-exclusion chromatography, of unlabeled and uniformly ^15N-labeled proteins were carried out as described previously ([11]).
(§2) Measurements were conducted on a T200 (Cytiva) and data analyzed using the Biacore Insight Evaluation Software. Experiments were performed at 4 °C in multicycle kinetics mode and fit using the equilibrium steady state affinity model (1:1 Langmuir binding isotherm). For experiments measuring the binding of the 2AcK peptide, biotinylated BET BDs were immobilized on a biotin CAP chip (Cytiva) with a target density of ∼1000 to 2000 RU and peptide was flowed over the chip. A buffer comprising 20 mM Mes (pH 6.5), 150 mM NaCl, 0.05% (v/v) Tween-20 was used as the running buffer. For experiments measuring the binding of 1AcK.4E and 2AcK.4E, C-terminally biotinylated variants of the peptides were immobilized on a CM5 chip (Cytiva), which had been amine-coupled with streptavidin, to a target density of ∼50 to 100 RU and unlabeled BET BDs were flowed over the chip. A buffer comprising 20 mM Hepes (pH 7.5), 150 mM NaCl, and 0.05% (v/v) Tween-20 was used as the running buffer.

[3] = target: T2, BRD3–BD2 (Homo sapiens, UniProt Q15059); assay: SPR binding of peptides to BET bromodomains; settings: peptide flowed
T2 construct: BRD3 (BD1: 25–147; BD2: 307–419); His tag (N); biotinylation (Avi-type acceptor, vector pQE80L-Navi) (N); made in house; host or cells: Escherichia coli
Source text: as §1, §2

[4] = target: T3, BRD4–BD2 (Homo sapiens, UniProt O60885); assay: SPR binding of peptides to BET bromodomains; settings: SPR 4 °C; biotinylated BD immobilized on biotin CAP chip, peptide flowed; 20 mM Mes pH 6.5, 150 mM NaCl, 0.05% Tween-20; steady state 1:1 fit; geometric mean of minimum three measurements
T3 construct: BRD4 (BD1: 42–168; BD2: 348–464); His tag (N); biotinylation (Avi-type acceptor, vector pQE80L-Navi) (N); made in house; host or cells: Escherichia coli
Source text: as §1, §2

[5] = target: BRD3–BD1, BRD4–BD1, and BRD2–BD1; assay: SPR, stated jointly for the BD1 domains; type: binding, human; settings: range over BRD3–BD1, BRD4–BD1 and BRD2–BD1; BD immobilized, peptide flowed; equilibrium steady state affinity analysis; read-out: Affinities (KD) for the three BD1 domains, SPR
Source text: as §1
Measurements were conducted on a T200 (Cytiva) and data analyzed using the Biacore Insight Evaluation Software. Experiments were performed at 4 °C in multicycle kinetics mode and fit using the equilibrium steady state affinity model (1:1 Langmuir binding isotherm). For experiments measuring the binding of the 2AcK peptide, biotinylated BET BDs were immobilized on a biotin CAP chip (Cytiva) with a target density of ∼1000 to 2000 RU and peptide was flowed over the chip. A buffer comprising 20 mM Mes (pH 6.5), 150 mM NaCl, 0.05% (v/v) Tween-20 was used as the running buffer. […]

[6] = target: T4, BRD3–BD1 (Homo sapiens, UniProt Q15059); assay: Isothermal titration calorimetry (ITC); settings: ITC 25 °C, BRD3–BD1 titrated into peptide; fit to binding isotherm
T4 construct: BRD3 (BD1: 25–147; BD2: 307–419); His tag (N); biotinylation (Avi-type acceptor, vector pQE80L-Navi) (N); made in house; host or cells: Escherichia coli
Source text: as §1
The affinities and stoichiometry for the interaction of BRD3–BD1 with 2AcK and 2AcK.4E peptides were determined using a MicroCal PEAQ ITC (Malvern Instruments). Titrations of BRD3–BD1 (1 mM) into peptide (25–50 μM) were carried out at 25 °C using a 0.2 μl initial injection and 20 to 24 subsequence 1 to 3 μl injections. Data were analyzed using Malvern MicroCal PEAQ ITC Software, using a protein into buffer baseline correction and fitted with a one-site binding model.

[7] = Fig. 2A, one titration, fit to 1:1 binding model, BD immobilized, Mes pH 6.5, 4 °C
[8] = SPR 4 °C, biotinylated BD immobilized on biotin CAP chip, 20 mM Mes pH 6.5, 150 mM NaCl, 0.05% Tween-20, steady state 1:1 fit, geometric mean of minimum three measurements

T2 sequence (Q15059 307-419): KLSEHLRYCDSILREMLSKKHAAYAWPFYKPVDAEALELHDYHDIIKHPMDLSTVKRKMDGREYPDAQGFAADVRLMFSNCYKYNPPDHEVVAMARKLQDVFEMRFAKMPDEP
T1 sequence (P25440 347-455): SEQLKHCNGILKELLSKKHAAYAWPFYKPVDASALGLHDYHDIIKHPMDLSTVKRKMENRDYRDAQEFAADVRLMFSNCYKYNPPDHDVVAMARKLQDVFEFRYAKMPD
T4 sequence (Q15059 25-147): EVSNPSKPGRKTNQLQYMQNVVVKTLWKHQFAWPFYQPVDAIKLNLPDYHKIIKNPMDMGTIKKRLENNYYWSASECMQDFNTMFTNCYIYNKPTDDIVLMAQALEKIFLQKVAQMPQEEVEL

With ALLLAKLYHF [1AcK] the “Solubility of the peptide (in words)” value [1] was “not soluble at concentrations high enough to allow measurements to be made”.
In the case of “Ac-AQRSLK(Ac)LLK(Ac)HLYH-NH2 (C-terminus assumed) [2AcK]”, the “KD on plot, typical SPR titration, BRD2-BD2” value [2, 7] is reported as “No binding”, the “KD (SPR) BRD2–BD2” value [2, 8] is reported as “no measurable binding” and the “KD on plot, typical SPR titration, BRD3-BD2” value [3, 7] is reported as “No binding”. The “KD (SPR) BRD3–BD2” value [3, 8] was “no measurable binding”, the “KD (SPR) BRD4–BD2” value [4] was “a small degree of binding observed” and the Kd [5] was 1000 to 2000 nM. For the same substance, the “N value (stoichiometry) from ITC fit” value [6] was about 2.5 and the “Solubility of the peptide (in words)” value [1] was “slightly more soluble”.
